Measured values reported in patent US6352958B1, “Cycloimido-substituted benzofused heterocyclic herbicides” (FMC Corporation, priority 1997, dated 2002).

Legend:
[1] = test system: green foxtail (Setaria viridis); assay: Preemergence herbicidal activity, green foxtail; format: in vivo; conditions: Rate of Application 0.3 Kg/Ha, examined after 12-17 days
[2] = test system: common cocklebur (Xanthium strumarium L.); assay: Postemergence herbicidal activity, cocklebur; format: in vivo; conditions: rate of application 0.3 Kg/Ha, rated after 12-17 days
[3] = test system: velvetleaf (Abutilon theophrasti); assay: Postemergence herbicidal activity, velvetleaf; format: in vivo; conditions: rate of application 0.3 Kg/Ha, rated after 12-17 days
[4] = test system: Johnsongrass (Sorghum halepense); assay: Preemergence herbicidal activity, johnsongrass; format: in vivo; conditions: Rate of Application 0.3 Kg/Ha, examined after 12-17 days
[5] = test system: wheat (Triticum aestivum var. Lew); assay: Postemergence herbicidal activity, wheat; format: in vivo; conditions: rate of application 0.3 Kg/Ha, rated after 12-17 days
[6] = test system: soybean (Glycine max var. Winchester); assay: Postemergence herbicidal activity, soybean; format: in vivo; conditions: rate of application 0.3 Kg/Ha, rated after 12-17 days
[7] = test system: green foxtail (Setaria viridis); assay: Postemergence herbicidal activity, green foxtail; format: in vivo; conditions: rate of application 0.3 Kg/Ha, rated after 12-17 days
[8] = test system: soybean (Glycine max var. Winchester); assay: Preemergence herbicidal activity, soybean; format: in vivo; conditions: Rate of Application 0.3 Kg/Ha, examined after 12-17 days
[9] = test system: velvetleaf (Abutilon theophrasti); assay: Preemergence herbicidal activity, velvetleaf; format: in vivo; conditions: Rate of Application 0.3 Kg/Ha, examined after 12-17 days
[10] = test system: blackgrass (Aloepecurus myosuroides); assay: Postemergence herbicidal activity, blackgrass; format: in vivo; conditions: rate of application 0.3 Kg/Ha, rated after 12-17 days
[11] = test system: field corn (Zea mays var. Pioneer 3732); assay: Postemergence herbicidal activity, corn; format: in vivo; conditions: rate of application 0.3 Kg/Ha, rated after 12-17 days
[12] = test system: blackgrass (Aloepecurus myosuroides); assay: Preemergence herbicidal activity, blackgrass; format: in vivo; conditions: Rate of Application 0.3 Kg/Ha, examined after 12-17 days
[13] = test system: Johnsongrass (Sorghum halepense); assay: Postemergence herbicidal activity, johnsongrass; format: in vivo; conditions: rate of application 0.3 Kg/Ha, rated after 12-17 days
[14] = test system: morningglory (Ipomea lacunosa or Ipomea hederacea); assay: Preemergence herbicidal activity, morningglory; format: in vivo; conditions: Rate of Application 0.3 Kg/Ha, examined after 12-17 days
[15] = test system: field corn (Zea mays var. Pioneer 3732); assay: Preemergence herbicidal activity, corn; format: in vivo; conditions: Rate of Application 0.3 Kg/Ha, examined after 12-17 days
[16] = test system: wheat (Triticum aestivum var. Lew); assay: Preemergence herbicidal activity, wheat; format: in vivo; conditions: Rate of Application 0.3 Kg/Ha, examined after 12-17 days
[17] = test system: common cocklebur (Xanthium strumarium L.); assay: Preemergence herbicidal activity, cocklebur; format: in vivo; conditions: Rate of Application 0.3 Kg/Ha, examined after 12-17 days
[18] = test system: common chickweed (Stellaria media); assay: Preemergence herbicidal activity, chickweed; format: in vivo; conditions: Rate of Application 0.3 Kg/Ha, examined after 12-17 days
[19] = test system: morningglory (Ipomea lacunosa or Ipomea hederacea); assay: Postemergence herbicidal activity, morningglory; format: in vivo; conditions: rate of application 0.3 Kg/Ha, rated after 12-17 days
[20] = test system: common chickweed (Stellaria media); assay: Postemergence herbicidal activity, chickweed; format: in vivo; conditions: rate of application 0.3 Kg/Ha, rated after 12-17 days

SMILES | PREEMERGENCE HERBICIDAL ACTIVITY (% CONTROL) SETVI [1] | Postemergence herbicidal activity (% control) XANPE [2] | Postemergence herbicidal activity (% control) ABUTH [3] | PREEMERGENCE HERBICIDAL ACTIVITY (% CONTROL) SORHA [4] | Postemergence herbicidal activity (% control) WHT [5] | Postemergence herbicidal activity (% control) SOY [6] | Postemergence herbicidal activity (% control) SETVI [7] | PREEMERGENCE HERBICIDAL ACTIVITY (% CONTROL) SOY [8] | Postemergence herbicidal activity (% control) STEME [20] | PREEMERGENCE HERBICIDAL ACTIVITY (% CONTROL) ABUTH [9] | Postemergence herbicidal activity (% control) ALOMY [10] | Postemergence herbicidal activity (% control) CRN [11] | PREEMERGENCE HERBICIDAL ACTIVITY (% CONTROL) ALOMY [12] | Postemergence herbicidal activity (% control) SORHA [13] | PREEMERGENCE HERBICIDAL ACTIVITY (% CONTROL) IPOSS [14] | PREEMERGENCE HERBICIDAL ACTIVITY (% CONTROL) CRN [15] | PREEMERGENCE HERBICIDAL ACTIVITY (% CONTROL) WHT [16] | PREEMERGENCE HERBICIDAL ACTIVITY (% CONTROL) XANPE [17] | PREEMERGENCE HERBICIDAL ACTIVITY (% CONTROL) STEME [18] | Postemergence herbicidal activity (% control) IPOSS [19] | further results
Cn1c(C(F)(F)F)cc(=O)n(-c2c(F)cc(Cl)c3[nH]c(C(C)(C)C)nc23)c1=O [Compound 369, 3-(2-T-BUTYL4-CHLORO-6-FLUOROBENZIMIDAZOL-7-YL)-1-METHYL-6-TRIFLUOROMETHYL-2,4(1H,3H)-PYRIMIDINEDIONE] | – | – | – | – | – | – | – | – | – | – | – | – | – | – | – | – | – | – | – | – | inhibition at 300 g/ha ([1]; Setaria viridis, pre-emergence, read-out: PREEMERGENCE HERBICIDAL ACTIVITY (% CONTROL) SETVI): 100%; inhibition at 300 g/ha ([2]; Xanthium strumarium, post-emergence, read-out: Postemergence herbicidal activity (% control) XANPE): 100%; inhibition at 300 g/ha ([3]; Abutilon theophrasti, post-emergence, read-out: Postemergence herbicidal activity (% control) ABUTH): 100%; inhibition at 300 g/ha ([4]; Sorghum halepense, pre-emergence, read-out: PREEMERGENCE HERBICIDAL ACTIVITY (% CONTROL) SORHA): 100%; inhibition at 300 g/ha ([5]; Triticum aestivum, post-emergence, read-out: Postemergence herbicidal activity (% control) WHT): 80%; inhibition at 300 g/ha ([6]; Glycine max, post-emergence, read-out: Postemergence herbicidal activity (% control) SOY): 100%; melting point: 125 to 130 °C; inhibition at 300 g/ha ([7]; Setaria viridis, post-emergence, read-out: Postemergence herbicidal activity (% control) SETVI): 100%; inhibition at 300 g/ha ([8]; Glycine max, pre-emergence, read-out: PREEMERGENCE HERBICIDAL ACTIVITY (% CONTROL) SOY): 100%; inhibition at 300 g/ha ([9]; Abutilon theophrasti, pre-emergence, read-out: PREEMERGENCE HERBICIDAL ACTIVITY (% CONTROL) ABUTH): 100%; inhibition at 300 g/ha ([10]; Alopecurus myosuroides, post-emergence, read-out: Postemergence herbicidal activity (% control) ALOMY): 100%; inhibition at 300 g/ha ([11]; Zea mays, post-emergence, read-out: Postemergence herbicidal activity (% control) CRN): 100%; inhibition at 300 g/ha ([12]; Alopecurus myosuroides, pre-emergence, read-out: PREEMERGENCE HERBICIDAL ACTIVITY (% CONTROL) ALOMY): 100%; inhibition at 300 g/ha ([13]; Sorghum halepense, post-emergence, read-out: Postemergence herbicidal activity (% control) SORHA): 100%; inhibition at 300 g/ha ([14]; Ipomoea, pre-emergence, read-out: PREEMERGENCE HERBICIDAL ACTIVITY (% CONTROL) IPOSS): 100%; inhibition at 300 g/ha ([15]; Zea mays, pre-emergence, read-out: PREEMERGENCE HERBICIDAL ACTIVITY (% CONTROL) CRN): 100%; inhibition at 300 g/ha ([16]; Triticum aestivum, pre-emergence, read-out: PREEMERGENCE HERBICIDAL ACTIVITY (% CONTROL) WHT): 100%; inhibition at 300 g/ha ([17]; Xanthium strumarium, pre-emergence, read-out: PREEMERGENCE HERBICIDAL ACTIVITY (% CONTROL) XANPE): 100%; inhibition at 300 g/ha ([18]; Stellaria media, pre-emergence, read-out: PREEMERGENCE HERBICIDAL ACTIVITY (% CONTROL) STEME): 100%; inhibition at 300 g/ha ([19]; Ipomoea, post-emergence, read-out: Postemergence herbicidal activity (% control) IPOSS): 100%
Cc1nc2c(-n3c(=O)cc(C(F)(F)F)n(C)c3=O)c(F)cc(Cl)c2o1 [Compound 1] | 100% | 100% | 100% | 95% | 65% | 95% | 80% | 100% | 90% | 100% | 70% | 80% | 90% | 80% | 100% | 90% | 85% | 100% | 100% | 100% | –
CCN(CC)Cc1cc2c(Cl)ccc(-n3c(=O)cc(C(F)(F)F)n(C)c3=O)c2o1 [Compound 257] | 70% | 70% | 100% | 10% | 20% | 70% | 70% | 40% | 30% | 90% | 30% | 70% | 20% | 50% | 70% | 10% | 0% | 20% | 0% | 60% | –
